Where two headings read alike, the source gives them in different places. Bounds are passed on as bounds.

Data set [1] has as its target PAN endonuclease (Influenza A virus, UniProt Q5EP34). Format: biochemical, H5N1 influenza virus A/Vietnam/1203/2004.
The target in data set [2] is PAN (Influenza A virus, UniProt Q5EP34). Format: binding, H5N1 influenza virus A/Vietnam/1203/2004.
Data set [3] relates to influenza virus. To be noted: cited from earlier work.
Data set [4] concerns influenza virus. To be noted: mouse, in vivo; cited from earlier work.
Data set [5] in a line: in vitro. The settings on record: dog.
Data set [6] concerns H1N1 influenza A virus (A/PuertoRico/8/34). As to the kind of experiment: microbe, parasite or virus in culture. Format: cell-based. To be noted: H1N1, MDCK, 72 h, read-out: Antiviral Activity IC50.
Data set [7] addresses influenza A polymerase. To be noted: read-out: Reported IC50; cited from earlier work.
Data set [8] relates to influenza A polymerase. Format: biochemical, influenza A virus.
In data set [9] the test system is H1N1 influenza A virus (A/PuertoRico/8/34). Also on record: method as in PMID 22211528. To be noted: plaque formation, MDCK cells, 72 h, measured previously; read-out: Antiviral Activity IC50; cited from earlier work.
The test system of data set [10] is MDCK cells. To be noted: cited from earlier work.

“2,4-dioxo-4-phenylbutanoic acid [Compound 2]”: in data set [1], the “Inhibition of PAN endonuclease activity” value was “inhibited PAN enzymatic activity in a dose-dependent manner”. The “ITC binding stoichiometry N (compound per PAN)” value in data set [2] is recorded as 1.86.

Turning to `O=C1Cc2ccccc2C(=O)N1O` [Compound 1], the “Inhibition of PAN endonuclease activity” value in [1] is “inhibited PAN enzymatic activity in a dose-dependent manner”.

`O=C(O)/C(O)=C/C(=O)C1(Cc2ccc(Cl)cc2)CCN(Cc2ccccc2)CC1` [Compound 3, L-742,001]: in data set [1], the “Inhibition of PAN endonuclease activity” value was “inhibited PAN enzymatic activity in a dose-dependent manner”. In data set [3] (read-out: IC50, inhibition of viral replication in cell culture), the half-maximal inhibitory concentration (IC50) was 0.35 µM. Also, the “Inhibition of viral replication in mice (qualitative)” value in data set [4] is listed as “dose-dependent inhibition of viral replication”.

The compound `Cn1cnc(-c2nc(C(=O)O)c(O)c(=O)[nH]2)c1` [Compound 4, 5-hydroxy-2-(1-methyl-1H-imidazol-4-yl)-6-oxo-1,6-dihydropyrimidine-4-carboxylic acid] showed a CC50 at 72 h in data set [5] greater than 60 µM. Besides, the IC50 in data set [6] was greater than 50 µM. The “Inhibition of PAN endonuclease activity” value in [1] is “inhibit PAN activity”.

`CC(=O)Nc1cccc(-c2nc(C(=O)O)c(O)c(=O)[nH]2)c1` [Compound 5, 2-(3-acetamidophenyl)-5-hydroxy-6-oxo-1,6-dihydropyrimidine-4-carboxylic acid]: the CC50 at 72 h in [5] worked out at 48.7 ± 1.2 µM. For the same compound, in data set [6], the IC50 was greater than 50 µM. In addition, in data set [1], the “Inhibition of PAN endonuclease activity” value is reported as “inhibit PAN activity”.

Take `O=C(O)c1cccc(O)c1O` [Compound 6, dihydroxybenzoic acid]: the “Inhibition of PAN endonuclease activity” value in data set [1] is on record as “little ability to inhibit PAN endonuclease activity”.

As for `CC(C)/C=C1\N=C(CC(C)C)C(=O)N(O)C1=O` [Compound 7, Flutimide], in data set [7], the IC50 was 5.5 µM.

`CC(C)CC1=N/C(=C\c2ccc(F)cc2)C(=O)N(O)C1=O` [Compound 8]: the “Fold increase in potency compared with Flutimide” value in [8] is listed as 6 fold. Moreover, the half-inhibitory concentration (IC50) in data set [7] is 0.9 µM.

As to `CC(C)CC1=N/C(=C\c2ccc(F)cc2)C(=O)NC1=O` [Compound 9], the IC50 in data set [7] was greater than 365 µM.

`O=C1Cc2ccccc2CC(=O)N1O` [Compound 11]: the IC50 in data set [7] was greater than 1000 µM.

`CC(C)C(=O)C=C(O)C(=O)O` [Compound 13]: the “Fold reduction in potency compared with 2” value in [8] came to 2.6 fold. Besides, the half-inhibitory concentration (IC50) in data set [7] was 56.7 µM.

On to `CC(=O)C=C(O)C(=O)O` [Compound 14], for which the “Fold reduction in potency compared with 2” value in [8] worked out at 14 fold. The IC50 in data set [7] is 307 µM.

`O=C(CC(O)C(=O)O)c1ccccc1` (centres unmarked) [Compound 16]: the IC50 in data set [7] is greater than 500 µM.

`NC(CC(=O)c1ccccc1)C(=O)O` (centres unmarked) [Compound 17]: the IC50 in data set [7] was greater than 500 µM.

Consider `O=C(O)/C(O)=C/S(=O)(=O)c1ccccc1` [Compound 19], for which the concentration for half-maximal inhibition (IC50) in [7] is greater than 500 µM.

As to `O=C(O)/C(O)=C/C(=O)C1(Cc2ccc(Cl)cc2)CCCN(Cc2ccccc2)C1` [Compound 20, L-735,882], the “Inhibition of viral replication in cell culture (qualitative)” value (from here on “Inhibition … in cell culture (qualitative)”) in data set [3] was “dose-dependent inhibition of viral replication in cell culture”. Also, in data set [7], the IC50 was 1.1 µM.

Consider `O=C(O)/C(O)=C/C(=O)C1(Cc2ccc(Cl)cc2)CCCN(S(=O)(=O)Cc2ccccc2)C1` (centres unmarked) [Compound 21], for which, in data set [3], the “Inhibition … in cell culture (qualitative)” value was “dose-dependent inhibition of viral replication in cell culture”. The IC50 in [7] was 0.19 µM.

Take `O=C(O)/C(O)=C/C(=O)C1(Cc2ccc(Cl)cc2)CCN(CC2CCCCC2)CC1` [Compound 22]: in [3], the “Inhibition … in cell culture (qualitative)” value was “dose-dependent inhibition of viral replication in cell culture”.

In [5], `COC(=O)c1nc(-c2cn(C)cn2)[nH]c(=O)c1O` [Compound 23] gave a CC50 at 72 h of 53.2 ± 0.9 µM. Moreover, the IC50 in data set [6] is greater than 50 µM.

Consider `O=C(O)c1nc(-c2cnccn2)nc(O)c1O` [Compound 24], for which, in [9], the IC50 was greater than 50 µM. Besides, the CC50 in data set [10] is greater than 60 µM.

With `COC(=O)c1nc(-c2cnccn2)[nH]c(=O)c1O` [Compound 25], the CC50 at 72 h in data set [5] was greater than 60 µM. Further, in data set [6], the IC50 was greater than 50 µM.

On to `C[C@@H](NC(=O)c1nc(-c2cnccn2)[nH]c(=O)c1O)c1ccccc1` [Compound 26], for which the half-maximal inhibitory concentration (IC50) in [9] was 12.68 ± 0.08 µM. Also, the CC50 in data set [10] was greater than 60 µM.

(Values after PMC3410894, “Structural and Biochemical Basis for Development of Influenza Virus Inhibitors Targeting the PA Endonuclease” (PLoS Pathogens, 2012).)
